The structures appear in SMILES notation. Read-outs that look alike come from different tables or passages of the source.

The target of the assay is Factor IXa (Homo sapiens (Human), UniProt P00740). As to the kind of experiment: Determination of inhibitory activity against Factor IXa (cleavage of fluorescent peptide CH3SO2-D-CHG-Gly-Arg-AFC). It is filed as biochemical. Here is the method:
Determination of Inhibitory Activity Against Factor IXa
Formation of a clot to stem bleeding at a site of blood vessel injury involves the coordinated activity of a group of plasma proteins that initiate and propagate fibrin formation and subsequently protect fibrin from premature degradation. Factor IX is a key component of the plasma system that forms a fibrin clot at a site of vascular injury. The activity of Factor IXa is measured by monitoring the cleavage of the fluorescent peptide, CH3SO2-D-CHG-Gly-Arg-AFC.AcOH (“CHG” is cyclohexyl-glycine and “AFC” is trifluoro aminomethyl coumarin). Factor IXa cleaves the amide bond between Arg and AFC, thereby releasing the AFC fluorophore. The free AFC can be detected with a fluorescence detector at an excitation wavelength of 405 nm and emission wavelength of 510 nm.

Factor IXa, sequence (P00740 227-461): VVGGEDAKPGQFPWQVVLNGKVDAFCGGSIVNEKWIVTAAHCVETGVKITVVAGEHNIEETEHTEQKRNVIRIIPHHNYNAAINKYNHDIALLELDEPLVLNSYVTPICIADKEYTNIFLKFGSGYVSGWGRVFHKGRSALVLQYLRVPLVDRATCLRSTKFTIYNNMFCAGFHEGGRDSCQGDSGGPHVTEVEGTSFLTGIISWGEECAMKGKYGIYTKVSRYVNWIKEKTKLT
Factor IXa, sequence (P00740 47-191 partner): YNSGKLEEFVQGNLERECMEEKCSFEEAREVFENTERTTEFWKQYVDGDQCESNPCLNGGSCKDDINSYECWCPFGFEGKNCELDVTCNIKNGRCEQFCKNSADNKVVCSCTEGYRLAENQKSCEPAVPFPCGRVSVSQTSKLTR

By IC50 is commonly meant the concentration needed to halve the response being measured. For `Cc1ncn(-c2cc(Cl)c(C(=O)NCC(c3ccc(=O)[nH]c3)c3nc4ccc(Cl)cc4[nH]3)c(Cl)c2)n1` (racemic) [Example 39, 2,6-Dichloro-N-(2-(6-chloro-1H-benzo[d]imidazol-2-yl)-2-(6-oxo-1,6-dihydropyridin-3-yl)ethyl)-4-(3-methyl-1H-1,2,4-triazol-1-yl)benzamide 2,2,2-trifluoroacetate], for the setting “read-out: FIXa IC50”, the IC50 is 2.4 nM.
Regarding `COc1ccc(C(CNC(=O)c2c(Cl)cc(-n3cnc(C)n3)cc2Cl)c2nc3ccc(Cl)cc3[nH]2)cn1` (racemic) [Example 40, (±)-2,6-Dichloro-N-(2-(6-chloro-1H-benzo[d]imidazol-2-yl)-2-(6-methoxypyridin-3-yl)ethyl)-4-(3-methyl-1H-1,2,4-triazol-1-yl)benzamide], where the note is “read-out: FIXa IC50”, the half-maximal inhibitory concentration (IC50) turned out to be 32.7 nM.
`COc1cc2nc(C(CNC(=O)c3c(Cl)cc(-n4cnc(C)n4)cc3Cl)n3cc(CO)nn3)[nH]c2cc1Cl` (racemic) [Example 71, (±)-2,6-Dichloro-N-(2-(6-chloro-5-methoxy-1H-benzo[d]imidazol-2-yl)-2-(4-(hydroxymethyl)-1H-1,2,3-triazol-1-yl)ethyl)-4-(3-methyl-1H-1,2,4-triazol-1-yl)benzamide]: under “read-out: FIXa IC50”, the IC50 came to 20.5 nM.
Still for that read-out and setting: with `Cc1cc2nc(C(CNC(=O)c3c(Cl)cc(-n4cc(CCO)nn4)cc3Cl)c3ccccc3)[nH]c2cc1C` (single isomer, unassigned) [Example 1] the figure was 10.4 nM; with `Cc1cc2nc(C(C)(CNC(=O)c3ccc(-n4cnnc4)cc3Cl)c3ccccc3)[nH]c2cc1C` (single isomer, unassigned) [Example 69], 55.2 nM.
For the compound `Cc1cc2nc([C@@H](CNC(=O)c3c(Cl)cc(-n4cnnn4)cc3Cl)c3ccccc3)[nH]c2cc1C` [Example 2, (R)-2,6-dichloro-N-(2-(5,6-dimethyl-1H-benzo[d]imidazol-2-yl)-2-phenylethyl)-4-(1H-tetrazol-1-yl)benzamide], under “read-out: FIXa IC50”, the half-maximal inhibitory concentration (IC50) was found to be 26.4 nM.
On to `Cc1cc2nc(C(CNC(=O)c3ccc(-n4cc(CCO)nn4)cc3Cl)c3ccccc3)[nH]c2cc1C` (centres unmarked) [Example 3], for which the concentration for half-maximal inhibition (IC50) (read-out: hFIXa IC50) turned out to be 21.9 nM.
In the case of `Cc1ncn(-c2cc(Cl)c(C(=O)NCC(c3ccccc3)c3nc4cc(C)c(C)cc4[nH]3)c(C(F)(F)F)c2)n1` (centres unmarked) [Example 4], the IC50 (read-out: hFIXa IC50) was determined as 63.1 nM.
Still for that read-out and setting: with `Cc1cc2nc(C(CNC(=O)c3c(Cl)cc(-n4cnnc4)cc3C(F)(F)F)c3ccccc3)[nH]c2cc1C` (centres unmarked) [Example 5] the figure was 21.8 nM; with `Cc1ncn(-c2cc(Cl)c(C(=O)NCC(c3ccccc3)c3nc4cc(C)c(C)cc4[nH]3)c(Cl)c2)n1` (centres unmarked) [Example 6], 20.8 nM.
Take `Cc1cc2nc(C(CNC(=O)c3c(Cl)cc(-n4cnnc4)cc3Cl)c3ccccc3)[nH]c2cc1C` (centres unmarked) [Example 7]: the 50% inhibitory concentration (IC50) (read-out: hFIXa IC50) came to 3.64 nM.
`Cc1ncn(-c2cc(C)c(C(=O)NCC(c3ccccc3)c3nc4cc(C)c(C)cc4[nH]3)c(Cl)c2)n1` (centres unmarked) [Example 8]: the concentration for half-maximal inhibition (IC50) (read-out: hFIXa IC50) stood at 6.99 nM.
Same read-out and setting: with `COc1cc(-n2cnnc2)cc(Cl)c1C(=O)NCC(c1ccccc1)c1nc2cc(C)c(C)cc2[nH]1` (centres unmarked) [Example 9] the figure was 14.8 nM; with `Cc1cc2nc(C(CNC(=O)c3c(F)cc(-n4cnnc4)cc3Cl)c3ccccc3)[nH]c2cc1C` (centres unmarked) [Example 10], 15.2 nM; with `Cc1cc2nc(C(CNC(=O)c3c(C)cc(-n4cnnc4)cc3Cl)c3ccccc3)[nH]c2cc1C` (centres unmarked) [Example 11], 8.05 nM.
For `Cc1cc2nc([C@@H](CNC(=O)c3ccc(-n4cnnn4)cc3Cl)c3ccccc3)[nH]c2cc1C` [Example 12], the concentration for half-maximal inhibition (IC50) (read-out: hFIXa IC50) was 78.3 nM.
In the case of `COc1ncn(-c2ccc(C(=O)NCC(c3cccc(F)c3)c3nc4ccc(Cl)cc4[nH]3)c(Cl)c2)n1` (centres unmarked) [Example 13], the half-maximal inhibitory concentration (IC50) (read-out: hFIXa IC50) was found to be 65.8 nM.
Take `Cc1cc2nc(C(CNC(=O)c3c(Cl)cc(-n4cnnc4)cc3OC(F)(F)F)c3ccccc3)[nH]c2cc1C` (centres unmarked) [Example 14]: the IC50 (read-out: hFIXa IC50) is 40 nM.
`Cc1cc(Cl)cc2[nH]c(C(CNC(=O)c3ccc(-n4cnnc4C)cc3Cl)c3cccc(F)c3)nc12` (centres unmarked) [Example 15]: the IC50 (read-out: hFIXa IC50) worked out at 4.9 nM.
For the compound `Cc1cc2nc(C(CNC(=O)c3c(Cl)cc(-c4ccnc(C(=O)O)c4)cc3Cl)c3ccccc3)[nH]c2cc1C` (centres unmarked) [Example 16, 4-(3,5-Dichloro-4-((2-(5,6-dimethyl-1H-benzo[d]imidazol-2-yl)-2-phenylethyl)carbamoyl)phenyl)picolinic acid], where the note is “read-out: FIXa IC50”, the half-maximal inhibitory concentration (IC50) was 73.6 nM.
For the compound `Cc1cc2nc(C(CNC(=O)c3c(Cl)cc(-c4cncnc4)cc3Cl)c3ccccc3)[nH]c2cc1C` (centres unmarked) [Example 17], the IC50 (read-out: hFIXa IC50) is 18.1 nM.
With `Cc1cc2nc(C(CNC(=O)c3c(Cl)cc(-c4cnn(CS(C)(=O)=O)c4)cc3Cl)c3ccccc3)[nH]c2cc1C` (centres unmarked) [Example 18], the IC50 (read-out: hFIXa IC50) was determined as 403 nM.
Same read-out and setting: with `CCOC(=O)c1cc(-c2cc(Cl)c(C(=O)NCC(c3ccccc3)c3nc4cc(C)c(C)cc4[nH]3)c(Cl)c2)ccn1` (centres unmarked) [Example 19] the figure was 343 nM; with `Cc1cc2nc(C(CNC(=O)c3c(Cl)cc(-c4cnc5c(c4)CCC(=O)N5)cc3Cl)c3ccccc3)[nH]c2cc1C` (centres unmarked) [Example 20], 276 nM; with `Cc1cc2nc(C(CNC(=O)c3c(Cl)cc(-c4cnc(OCCF)nc4)cc3Cl)c3ccccc3)[nH]c2cc1C` (centres unmarked) [Example 21], 378 nM.
Consider `Cc1cc2nc(C(CNC(=O)c3c(Cl)cc(-c4cncc(C(C)(C)O)c4)cc3Cl)c3ccccc3)[nH]c2cc1C` (centres unmarked) [Example 22], for which the concentration for half-maximal inhibition (IC50) (read-out: hFIXa IC50) stood at 44.7 nM.
Consider `COC(=O)c1ccc(-c2cc(Cl)c(C(=O)NCC(c3ccccc3)c3nc4cc(C)c(C)cc4[nH]3)c(Cl)c2)cn1` (centres unmarked) [Example 23], for which, where the note is “read-out: hFIXa IC50”, the IC50 was determined as 544 nM.
Consider `Cc1cc2nc(C(CNC(=O)c3c(Cl)cc(-c4cnc5c(c4)CNC5=O)cc3Cl)c3ccccc3)[nH]c2cc1C` (centres unmarked) [Example 24], for which, for the setting “read-out: hFIXa IC50”, the half-maximal inhibitory concentration (IC50) is 141 nM.
As for `Cc1cc2nc(C(CNC(=O)c3c(Cl)cc(-c4cnc5ccccc5c4)cc3Cl)c3ccccc3)[nH]c2cc1C` (centres unmarked) [Example 25], the IC50 (read-out: hFIXa IC50) amounted to 464 nM.
As to `Cc1cc2nc(C(CNC(=O)c3c(Cl)cc(-c4ccc(C(=O)O)nc4)cc3Cl)c3ccccc3)[nH]c2cc1C` (centres unmarked) [Example 26], the IC50 (read-out: hFIXa IC50) was 312 nM.
Still for that read-out and setting: with `Cc1cc2nc(C(CNC(=O)c3c(Cl)cc(-c4ccc5nncn5c4)cc3Cl)c3ccccc3)[nH]c2cc1C` (centres unmarked) [Example 27] the figure was 21 nM.
As for `Cc1cc2nc(C(CNC(=O)c3c(Cl)cc(-c4ccn5ncnc5c4)cc3Cl)c3ccccc3)[nH]c2cc1C` (centres unmarked) [Example 28], where the note is “read-out: hFIXa IC50”, the IC50 worked out at 64.8 nM.
As for `Cc1cc2nc(C(CNC(=O)c3c(Cl)cc(-c4cnc(C5CC5)nc4)cc3Cl)c3ccccc3)[nH]c2cc1C` (centres unmarked) [Example 29], the IC50 (read-out: hFIXa IC50) was found to be 654 nM.
For the compound `CCOC(=O)c1cc(-c2ccc(C(=O)NCC(c3ccccc3)c3nc4cc(C)c(C)cc4[nH]3)c(Cl)c2)ccn1` (centres unmarked) [Example 30], the IC50 (read-out: hFIXa IC50) was 247 nM.
With `Cc1cc2nc(C(CNC(=O)c3c(Cl)cc(-c4cnn(CCO)c4)cc3Cl)c3ccccc3)[nH]c2cc1C` (centres unmarked) [Example 31], for the setting “read-out: hFIXa IC50”, the half-inhibitory concentration (IC50) was found to be 65.3 nM.
On the same count and under the same terms, with `Cc1cc2nc(C(CNC(=O)c3c(Cl)cc(-c4cn[nH]c4)cc3Cl)c3ccccc3)[nH]c2cc1C` (centres unmarked) [Example 32] the figure was 503 nM.
In the case of `Cc1cc2nc(C(CNC(=O)c3ccc(-c4ccnc(C(=O)O)c4)cc3Cl)c3ccccc3)[nH]c2cc1C` (centres unmarked) [Example 33], for the setting “read-out: hFIXa IC50”, the concentration for half-maximal inhibition (IC50) is 538 nM.
Regarding `Cc1cc2nc(C(CNC(=O)c3c(Cl)cc(-c4cncc(CO)c4)cc3Cl)c3ccccc3)[nH]c2cc1C` (centres unmarked) [Example 34], the half-maximal inhibitory concentration (IC50) (read-out: hFIXa IC50) is 10.3 nM.
On to `Cc1cc2nc(C(CNC(=O)c3c(Cl)cc(-c4ccc(CO)nc4)cc3Cl)c3ccccc3)[nH]c2cc1C` (centres unmarked) [Example 35], for which the half-maximal inhibitory concentration (IC50) (read-out: hFIXa IC50) came to 42.7 nM.
Take `Cc1cc2nc(C(CNC(=O)c3c(Cl)cc(-c4ccnc(CO)c4)cc3Cl)c3ccccc3)[nH]c2cc1C` (centres unmarked) [Example 36]: under “read-out: hFIXa IC50”, the half-maximal inhibitory concentration (IC50) came out at 52.5 nM.
In the case of `Cc1cc2nc([C@@H](CNC(=O)c3ccc(-n4cnnc4)cc3Cl)c3ccccc3)[nH]c2cc1C` [Example 37, (R)-2-Chloro-N-(2-(5,6-dimethyl-1H-benzo[d]imidazol-2-yl)-2-phenylethyl)-4-(4H-1,2,4-triazol-4-yl)benzamide], under “read-out: FIXa IC50”, the IC50 worked out at 15.7 nM.
In the case of `Cc1cc2nc([C@@H](CNC(=O)c3c(Cl)cc(-n4cnnc4)cc3Cl)c3cncc(F)c3)[nH]c2cc1C` [Example 38, (R)-2,6-Dichloro-N-(2-(5,6-dimethyl-1H-benzo[d]imidazol-2-yl)-2-(5-fluoropyridin-3-yl)ethyl)-4-(4H-1,2,4-triazol-4-yl)benzamide], for the setting “read-out: FIXa IC50”, the IC50 was found to be 14.8 nM.
As for `Cc1ncn(-c2cc(Cl)c(C(=O)NC[C@@H](c3ccc(C(=O)O)cc3)c3nc4c(C)cc(Cl)cc4[nH]3)c(Cl)c2)n1` [Example 41, (R)-4-(1-(6-Chloro-4-methyl-1H-benzo[d]imidazol-2-yl)-2-(2,6-dichloro-4-(3-methyl-1H-1,2,4-triazol-1-yl)benzamido)ethyl)benzoic acid], for the setting “read-out: FIXa IC50”, the IC50 came out at 18.6 nM.
With `CCOC(=O)c1ccc([C@H](CNC(=O)c2c(Cl)cc(-n3cnc(C)n3)cc2Cl)c2nc3c(C)cc(Cl)cc3[nH]2)cc1` [Example 42, (R)-Ethyl 4-(1-(6-chloro-4-methyl-1H-benzo[d]imidazol-2-yl)-2-(2,6-dichloro-4-(3-methyl-1H-1,2,4-triazol-1-yl)benzamido)ethyl)benzoate], the IC50 (read-out: FIXa IC50) is 39.1 nM.
As for `O=C(NC[C@@H](c1ccc(F)cc1)c1nc2ccc(Cl)cc2o1)c1c(Cl)cc(-n2cnnc2)cc1Cl` [Example 43, (R)-2,6-Dichloro-N-(2-(6-chlorobenzo[d]oxazol-2-yl)-2-(4-fluorophenyl)ethyl)-4-(4H-1,2,4-triazol-4-yl)benzamide], the IC50 (read-out: FIXa IC50) amounted to 96.2 nM.
On to `Cc1ccc2nc(C(CNC(=O)c3ccc(-n4cnnc4)cc3Cl)c3ccccc3)[nH]c2c1` (centres unmarked) [Example 44], for which the IC50 (read-out: hFIXa IC50) stood at 53.5 nM.
In the case of `Cc1cccc2[nH]c(C(CNC(=O)c3ccc(-n4cnnc4)cc3Cl)c3ccccc3)nc12` (centres unmarked) [Example 45], the 50% inhibitory concentration (IC50) (read-out: hFIXa IC50) came to 622 nM.

For the origin of these results see patent US10189819B2, “Factor IXa inhibitors” (MERCK SHARP & DOHME CORP., priority 2014, dated 2019).
